Source: patent US11767310B2, “Nicotinamide RIPK1 inhibitors” (AbbVie Inc., priority 2021, dated 2023)
Like-named read-outs stand apart in the source and are kept apart here.

Assays:
Test in all cases: Kinase binding screen
Settings in all cases: read-out: Percent Control at 100 nM Compound Concentration
STK35 = STK35 (Homo sapiens (Human), UniProt Q8TDR2)
MARK3 = MARK3 (Homo sapiens (Human), UniProt P27448)
PRKD1 = PRKD1 (Homo sapiens (Human), UniProt Q15139)
CAMKK2 = CAMKK2 (Homo sapiens (Human), UniProt Q96RR4)
EPHB4 = EPHB4 (Homo sapiens (Human), UniProt P54760)
SRPK1 = SRPK1 (Homo sapiens (Human), UniProt Q96SB4)
CASK = CASK (Homo sapiens (Human), UniProt O14936)
LOK = LOK (Homo sapiens (Human), UniProt O94804)
VRK2 = VRK2 (Homo sapiens (Human), UniProt Q86Y07)
RIOK1 = RIOK1 (Homo sapiens (Human), UniProt Q9BRS2)
PIKFYVE = PIKFYVE (Homo sapiens (Human), UniProt Q9Y2I7)
CSNK2A2 = CSNK2A2 (Homo sapiens (Human), UniProt P19784)
EGFR = EGFR (Homo sapiens (Human), UniProt P00533)
TNIK = TNIK (Homo sapiens (Human), UniProt Q9UKE5)
ZAP70 = ZAP70 (Homo sapiens (Human), UniProt P43403)
HIPK1 = HIPK1 (Homo sapiens (Human), UniProt Q86Z02)
GSK3B = GSK3B (Homo sapiens (Human), UniProt P49841)
PIK3CA = PIK3CA (Homo sapiens (Human), UniProt P42336)
BMPR1B = BMPR1B (Homo sapiens (Human), UniProt O00238)
SYK = SYK (Homo sapiens (Human), UniProt P43405)
GRK2 = GRK2 (Homo sapiens (Human), UniProt P25098)
CLK2 = CLK2 (Homo sapiens (Human), UniProt P49760)
ADCK3 = ADCK3 (Homo sapiens (Human), UniProt Q8NI60)
CAMK2G = CAMK2G (Homo sapiens (Human), UniProt Q13555)
CDKL5 = CDKL5 (Homo sapiens (Human), UniProt O76039)
KIT(V559D,T670I) = KIT(V559D,T670I) (Homo sapiens (Human), UniProt P10721, T670I/V559D)
[1] = molecular target: ABL1(F317I)-nonphosphorylated (Homo sapiens (Human), UniProt P00519, F317I)
DAPK3 = DAPK3 (Homo sapiens (Human), UniProt O43293)
GRK3 = GRK3 (Homo sapiens (Human), UniProt P35626)

Sequence of EPHB4 (P54760 16-987): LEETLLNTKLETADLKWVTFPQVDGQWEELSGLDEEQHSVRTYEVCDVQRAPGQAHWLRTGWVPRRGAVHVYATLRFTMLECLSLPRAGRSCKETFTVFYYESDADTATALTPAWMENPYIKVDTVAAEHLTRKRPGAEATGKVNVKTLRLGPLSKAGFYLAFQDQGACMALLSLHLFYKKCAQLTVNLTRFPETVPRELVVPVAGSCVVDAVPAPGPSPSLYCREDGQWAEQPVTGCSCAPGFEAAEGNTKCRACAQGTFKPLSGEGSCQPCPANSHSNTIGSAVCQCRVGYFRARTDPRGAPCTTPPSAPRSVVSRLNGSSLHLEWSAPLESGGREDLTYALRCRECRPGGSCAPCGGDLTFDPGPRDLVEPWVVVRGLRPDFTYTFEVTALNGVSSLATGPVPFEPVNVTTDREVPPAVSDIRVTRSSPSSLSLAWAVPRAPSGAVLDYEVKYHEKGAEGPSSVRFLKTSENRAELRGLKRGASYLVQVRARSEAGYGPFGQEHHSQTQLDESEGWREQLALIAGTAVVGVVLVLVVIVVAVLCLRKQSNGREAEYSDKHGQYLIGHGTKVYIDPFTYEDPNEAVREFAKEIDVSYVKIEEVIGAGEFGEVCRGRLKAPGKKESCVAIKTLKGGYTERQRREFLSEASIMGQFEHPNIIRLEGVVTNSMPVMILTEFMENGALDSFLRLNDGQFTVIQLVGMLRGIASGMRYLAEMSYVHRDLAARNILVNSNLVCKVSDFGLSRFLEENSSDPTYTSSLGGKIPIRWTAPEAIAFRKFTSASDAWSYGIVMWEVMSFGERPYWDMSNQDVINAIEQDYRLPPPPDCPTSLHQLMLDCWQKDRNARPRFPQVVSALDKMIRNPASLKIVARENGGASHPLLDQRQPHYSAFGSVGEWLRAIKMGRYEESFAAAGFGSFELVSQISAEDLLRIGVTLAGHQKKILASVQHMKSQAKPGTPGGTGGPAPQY
Sequence of DAPK3 (O43293 whole entry): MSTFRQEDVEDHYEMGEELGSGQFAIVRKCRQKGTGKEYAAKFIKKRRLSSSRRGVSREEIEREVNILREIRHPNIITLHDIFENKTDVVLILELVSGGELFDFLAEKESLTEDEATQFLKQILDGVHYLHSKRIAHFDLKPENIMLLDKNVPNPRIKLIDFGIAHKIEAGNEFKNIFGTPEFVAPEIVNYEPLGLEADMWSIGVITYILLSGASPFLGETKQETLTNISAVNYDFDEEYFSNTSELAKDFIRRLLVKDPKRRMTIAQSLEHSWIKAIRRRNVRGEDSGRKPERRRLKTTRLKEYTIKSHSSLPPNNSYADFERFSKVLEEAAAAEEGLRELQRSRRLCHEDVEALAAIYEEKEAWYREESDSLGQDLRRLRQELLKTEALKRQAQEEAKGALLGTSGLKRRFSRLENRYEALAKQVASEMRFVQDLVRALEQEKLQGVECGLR
Sequence of GSK3B (P49841 whole entry): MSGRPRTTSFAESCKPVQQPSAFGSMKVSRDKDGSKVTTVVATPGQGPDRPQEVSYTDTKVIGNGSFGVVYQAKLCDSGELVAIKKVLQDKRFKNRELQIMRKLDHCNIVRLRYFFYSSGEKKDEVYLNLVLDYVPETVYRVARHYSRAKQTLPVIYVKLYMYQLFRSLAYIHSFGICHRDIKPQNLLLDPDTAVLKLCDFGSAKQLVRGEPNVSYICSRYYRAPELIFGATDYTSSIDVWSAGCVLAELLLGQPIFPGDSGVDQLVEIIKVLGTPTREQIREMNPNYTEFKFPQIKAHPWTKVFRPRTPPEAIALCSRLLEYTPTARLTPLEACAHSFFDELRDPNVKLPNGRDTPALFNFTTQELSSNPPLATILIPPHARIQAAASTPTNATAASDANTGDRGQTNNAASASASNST
Sequence of TNIK (Q9UKE5 whole entry): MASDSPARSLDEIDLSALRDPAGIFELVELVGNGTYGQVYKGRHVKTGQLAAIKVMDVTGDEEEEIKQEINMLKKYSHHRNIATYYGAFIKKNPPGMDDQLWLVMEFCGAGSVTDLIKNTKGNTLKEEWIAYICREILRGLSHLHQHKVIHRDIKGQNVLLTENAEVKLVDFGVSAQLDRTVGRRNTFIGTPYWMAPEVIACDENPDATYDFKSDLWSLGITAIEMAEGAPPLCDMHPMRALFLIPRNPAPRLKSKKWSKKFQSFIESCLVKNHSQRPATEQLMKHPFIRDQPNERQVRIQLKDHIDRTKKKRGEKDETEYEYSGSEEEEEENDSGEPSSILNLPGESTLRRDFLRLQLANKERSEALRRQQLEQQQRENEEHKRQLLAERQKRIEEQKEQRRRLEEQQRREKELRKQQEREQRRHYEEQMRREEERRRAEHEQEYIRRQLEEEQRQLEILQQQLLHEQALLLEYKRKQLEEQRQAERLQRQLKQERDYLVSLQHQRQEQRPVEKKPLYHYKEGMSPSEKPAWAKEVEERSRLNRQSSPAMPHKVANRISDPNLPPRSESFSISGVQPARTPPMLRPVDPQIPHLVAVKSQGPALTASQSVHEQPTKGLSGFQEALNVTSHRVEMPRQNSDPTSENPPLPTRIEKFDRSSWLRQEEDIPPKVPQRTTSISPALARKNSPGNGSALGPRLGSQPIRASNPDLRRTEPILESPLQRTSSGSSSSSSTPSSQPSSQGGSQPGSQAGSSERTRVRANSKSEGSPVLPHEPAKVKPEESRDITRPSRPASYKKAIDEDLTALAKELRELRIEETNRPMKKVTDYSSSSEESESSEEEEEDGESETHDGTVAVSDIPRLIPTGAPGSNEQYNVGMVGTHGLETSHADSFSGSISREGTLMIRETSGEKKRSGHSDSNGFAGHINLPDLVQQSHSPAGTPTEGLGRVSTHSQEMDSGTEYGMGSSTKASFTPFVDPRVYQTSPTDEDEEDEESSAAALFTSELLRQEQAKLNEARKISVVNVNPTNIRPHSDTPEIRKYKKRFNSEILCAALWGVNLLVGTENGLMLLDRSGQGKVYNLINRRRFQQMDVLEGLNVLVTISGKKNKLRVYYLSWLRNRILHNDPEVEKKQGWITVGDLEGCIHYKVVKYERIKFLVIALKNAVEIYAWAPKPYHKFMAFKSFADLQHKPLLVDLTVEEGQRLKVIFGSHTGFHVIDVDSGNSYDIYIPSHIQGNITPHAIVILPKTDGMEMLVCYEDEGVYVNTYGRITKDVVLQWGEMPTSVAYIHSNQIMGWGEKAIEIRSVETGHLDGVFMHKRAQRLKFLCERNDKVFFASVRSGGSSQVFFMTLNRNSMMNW
Sequence of PIK3CA (P42336 whole entry): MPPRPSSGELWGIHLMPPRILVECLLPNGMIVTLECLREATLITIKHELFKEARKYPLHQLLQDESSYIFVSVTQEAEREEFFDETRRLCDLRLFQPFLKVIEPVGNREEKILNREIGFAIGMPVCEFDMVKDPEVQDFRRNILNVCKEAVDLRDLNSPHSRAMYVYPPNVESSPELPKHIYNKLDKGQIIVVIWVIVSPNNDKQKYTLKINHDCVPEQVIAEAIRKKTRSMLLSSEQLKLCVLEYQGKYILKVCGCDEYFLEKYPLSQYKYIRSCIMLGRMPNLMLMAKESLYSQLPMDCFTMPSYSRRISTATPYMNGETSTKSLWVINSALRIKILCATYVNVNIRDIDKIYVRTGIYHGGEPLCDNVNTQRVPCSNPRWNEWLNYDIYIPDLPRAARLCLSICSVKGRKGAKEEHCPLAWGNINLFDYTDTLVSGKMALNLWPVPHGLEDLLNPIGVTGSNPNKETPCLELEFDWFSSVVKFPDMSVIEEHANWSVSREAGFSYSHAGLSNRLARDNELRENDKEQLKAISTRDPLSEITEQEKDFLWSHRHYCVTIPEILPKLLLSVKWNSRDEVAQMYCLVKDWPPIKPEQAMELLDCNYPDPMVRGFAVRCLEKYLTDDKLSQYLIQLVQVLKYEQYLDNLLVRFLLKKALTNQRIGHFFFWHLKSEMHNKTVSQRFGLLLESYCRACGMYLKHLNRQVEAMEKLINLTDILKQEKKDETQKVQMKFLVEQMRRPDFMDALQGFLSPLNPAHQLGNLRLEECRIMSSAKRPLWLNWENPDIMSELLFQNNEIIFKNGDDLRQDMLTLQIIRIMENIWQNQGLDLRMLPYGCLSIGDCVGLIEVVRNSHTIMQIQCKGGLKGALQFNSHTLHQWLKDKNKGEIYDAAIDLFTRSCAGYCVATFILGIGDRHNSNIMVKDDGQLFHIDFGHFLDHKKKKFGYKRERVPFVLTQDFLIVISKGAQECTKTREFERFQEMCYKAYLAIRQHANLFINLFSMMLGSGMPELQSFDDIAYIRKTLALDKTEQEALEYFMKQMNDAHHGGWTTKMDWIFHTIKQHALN
Sequence of GRK2 (P25098 whole entry): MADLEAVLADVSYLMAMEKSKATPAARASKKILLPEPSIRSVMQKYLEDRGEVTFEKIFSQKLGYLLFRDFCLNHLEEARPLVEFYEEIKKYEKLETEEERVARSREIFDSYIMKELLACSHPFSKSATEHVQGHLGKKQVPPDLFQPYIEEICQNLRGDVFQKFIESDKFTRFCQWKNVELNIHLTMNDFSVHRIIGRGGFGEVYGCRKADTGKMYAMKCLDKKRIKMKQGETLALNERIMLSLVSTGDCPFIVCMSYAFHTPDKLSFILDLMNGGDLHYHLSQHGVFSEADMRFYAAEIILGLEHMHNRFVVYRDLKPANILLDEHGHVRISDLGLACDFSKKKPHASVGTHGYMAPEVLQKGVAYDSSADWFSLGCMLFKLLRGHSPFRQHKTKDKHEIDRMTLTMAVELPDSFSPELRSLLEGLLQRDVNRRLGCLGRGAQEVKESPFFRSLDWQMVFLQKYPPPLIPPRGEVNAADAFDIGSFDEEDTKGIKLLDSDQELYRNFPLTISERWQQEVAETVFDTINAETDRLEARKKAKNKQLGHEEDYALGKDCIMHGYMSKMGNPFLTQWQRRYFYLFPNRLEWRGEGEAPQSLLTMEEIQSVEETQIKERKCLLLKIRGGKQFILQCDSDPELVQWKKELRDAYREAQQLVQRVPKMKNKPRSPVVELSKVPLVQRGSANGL

`CN(C[C@@H](O)Cc1ccccc1)C(=O)c1cncc(C#Cc2cnn(C(F)F)c2)c1` [Example 2, (S)-5-((1-(difluoromethyl)-1H-pyrazol-4-yl)ethynyl)-N-(2-hydroxy-3-phenylpropyl)-N-methylnicotinamide] showed a remaining activity at 0.1 µM (STK35; STK35) of 99%, a remaining activity at 0.1 µM (MARK3; MARK3) of 98% and a remaining activity at 0.1 µM (PRKD1; PRKD1) of 100%. It also gave a remaining activity at 0.1 µM (CAMKK2; CAMKK2) of 99%, a remaining activity at 0.1 µM (EPHB4; EPHB4) of 100% and a remaining activity at 0.1 µM (SRPK1; SRPK1) of 100%. The remaining activity at 0.1 µM (CASK; CASK) was 99%, the remaining activity at 0.1 µM (LOK; LOK) was 100% and the remaining activity at 0.1 µM (VRK2; VRK2) was 91%. The remaining activity at 0.1 µM (RIOK1; RIOK1) was 100%, the remaining activity at 0.1 µM (PIKFYVE; PIKFYVE) was 57% and the remaining activity at 0.1 µM (CSNK2A2; CSNK2A2) was 100%. It also gave a remaining activity at 0.1 µM (EGFR; EGFR) of 93%, a remaining activity at 0.1 µM (TNIK; TNIK) of 100% and a remaining activity at 0.1 µM (ZAP70; ZAP70) of 98%. The remaining activity at 0.1 µM (HIPK1; HIPK1) was 72%, the remaining activity at 0.1 µM (GSK3B; GSK3B) was 100% and the remaining activity at 0.1 µM (PIK3CA; PIK3CA) was 100%. It also gave a remaining activity at 0.1 µM (BMPR1B; BMPR1B) of 98%, a remaining activity at 0.1 µM (SYK; SYK) of 97% and a remaining activity at 0.1 µM (GRK2; GRK2) of 96%. It also gave a remaining activity at 0.1 µM (CLK2; CLK2) of 95%, a remaining activity at 0.1 µM (ADCK3; ADCK3) of 100% and a remaining activity at 0.1 µM (CAMK2G; CAMK2G) of 94%. It also gave a remaining activity at 0.1 µM (CDKL5; CDKL5) of 93%, a remaining activity at 0.1 µM (KIT(V559D,T670I); KIT(V559D,T670I)) of 97% and a remaining activity at 0.1 µM ([1]; ABL1(F317I)-nonphosphorylated) of 100%. The remaining activity at 0.1 µM (DAPK3; DAPK3) was 100% and the remaining activity at 0.1 µM (GRK3; GRK3) was 82%.

In the case of `CN(C[C@H](Cc1ccccc1)OP(=O)(O)O)C(=O)c1cncc(C#Cc2cnn(C(F)F)c2)c1` [Example 19, (S)-1-(5-((1-(difluoromethyl)-1H-pyrazol-4-yl)ethynyl)-N-methylnicotinamido)-3-phenylpropan-2-yl dihydrogen phosphate], the remaining activity at 0.1 µM (STK35) was 100%, the remaining activity at 0.1 µM (MARK3) was 97% and the remaining activity at 0.1 µM (PRKD1) was 100%. The remaining activity at 0.1 µM (CAMKK2) was 100%, the remaining activity at 0.1 µM (EPHB4) was 100% and the remaining activity at 0.1 µM (SRPK1) was 100%. For the same compound, the remaining activity at 0.1 µM (CASK) was 94%, the remaining activity at 0.1 µM (LOK) was 100% and the remaining activity at 0.1 µM (VRK2) was 95%. For the same compound, the remaining activity at 0.1 µM (RIOK1) was 100%, the remaining activity at 0.1 µM (PIKFYVE) was 57% and the remaining activity at 0.1 µM (CSNK2A2) was 100%. The remaining activity at 0.1 µM (EGFR) was 100%, the remaining activity at 0.1 µM (TNIK) was 100% and the remaining activity at 0.1 µM (ZAP70) was 98%. The remaining activity at 0.1 µM (HIPK1) was 82%, the remaining activity at 0.1 µM (GSK3B) was 98% and the remaining activity at 0.1 µM (PIK3CA) was 100%. It also gave a remaining activity at 0.1 µM (BMPR1B) of 99%, a remaining activity at 0.1 µM (SYK) of 93% and a remaining activity at 0.1 µM (GRK2) of 79%. For the same compound, the remaining activity at 0.1 µM (CLK2) was 100%, the remaining activity at 0.1 µM (ADCK3) was 100% and the remaining activity at 0.1 µM (CAMK2G) was 100%. For the same compound, the remaining activity at 0.1 µM (CDKL5) was 86%, the remaining activity at 0.1 µM (KIT(V559D,T670I)) was 100% and the remaining activity at 0.1 µM [1] was 100%. The remaining activity at 0.1 µM (DAPK3) was 97% and the remaining activity at 0.1 µM (GRK3) was 81%.
